Measurements published in US4080466A, “Pharmaceutical compositions containing 4-hydroxyl-1,3-dithiolan-2-ylidene malonates” (Nihon Nohyaku Co., Ltd., priority 1976, dated 1978).

Columns and labels:
[1] = tested on: fatty liver induced by ethionine; assay: Effect on Fatty Liver (ethionine); type: in vivo, mouse (dd-strain); settings: 250 mg/kg oral, 24 h, 10 animals
From the text: But, the fatty liver is grouped into a couple of patterns from the mechanism of lipid accumulation or metabolism of lipoprotein in the liver. Ethionine is a typical example which induces first pattern of fatty liver. It inhibits RNA and protein synthesis and destructs polysome of the liver cell. Fatty liver is induced by inhibition of the protein synthesis and disturbance of lipoprotein secretion.
Usually, fatty liver is closely related to the accumulation of triglyceride in the liver. In the present example, the degree of fatty liver and protective or therapeutic effect against the fatty liver was evaluated by measurement of triglyceride content in the liver. Methods:
The compounds of this invention and methionine were independently dissolved or suspended into olive oil and administered orally to 4 week-old male mouse (dd-strain) at the dose of 250 mg/kg. One hour before it, simultaneously to it, or one hour after it, ethionine dissolved in equimolar NaOH solution was administered intraperitoneally at the dose of 200 mg/kg. Twenty four hours after the administration of ethionine, the animals were sacrificed and triglyceride content in the liver was determined by chromotropic acid method.

glucose metabolism [2] = assay: Effect on glucose metabolism; type: in vivo, mice; settings: 250 mg/kg oral, 6 h before glucose 4.0 g/kg; 0 min
[3] = tested on: alcohol metabolic function of liver; assay: Effect on Concentration of Ethyl alcohol in the Blood; type: in vivo, mice; settings: 250 mg/kg oral, 6 h before ethyl alcohol 1,000 mg/kg
Experimental: After 6 hours, 1,000 mg/kg of ethyl alcohol was given orally. Blood was taken in a capillary from caudal vein at the time indicated in the results. The plasma was obtained by centrifugation. The concentration of ethyl alcohol in the plasma was measured by FID type gas liquid chromatography. Five mice were used for each group.

[4] = tested on: excretion of biliary salt; assay: Cholagogic Action: effect on the excretion of biliary salt; type: in vivo, rats (SD-JCL strain); settings: 200 mg/kg oral; for Excretion of biliary salt: before treatment = 100
Experimental: (§1) Drugs as choleresis are used for patients to improve bile flow. In the present example, the effect of the compound of the invention on the quantities of bile and biliary salt is investigated. Methods:
(§2) The male rats (4 week-aged, SD-JCL strain) were anesthetized with sodium pentobarbital (37.5 mg/kg, intraperitoneal injection). The abdominal cavity was opened through a midline incision. The common bile duct was catheterized with polyethylene tube o.d. 0.8 mm. The catheter was brought to the outside through the abdominal incision would prior to closing. Bile was collected from the catheter continuously with time intervals of one hour. The quantity of bile produced in one hour was determined by weighing and that of biliary salt was determined by enzymatic method (Ikagaku Jikkenho Koza 1B, Biological Constituents II, edited by Tamio YAMAKAWA). The amount of biliary salt was represented in the term of cholic acid equivalent.
(§3) In the representation of the results, the quantities of bile and biliary salt produced in one hour prior to the administration of drug were taken as 100. The compound of this invention was orally administered at the dose of 200 mg/kg. As reference, anethol trithion was used.

bile flow = assay: Cholagogic Action: effect on bile flow; type: in vivo, rats (SD-JCL strain); settings: 200 mg/kg oral; for Bile flow: before treatment = 100
Experimental: as §1, §2, §3

[5] = tested on: acute liver damage induced by carbon tetrachloride; assay: Protective Effect on Acute Liver Damage associated with Centrilobular Necrosis (carbon tetrachloride); type: in vivo, mice (dd-strain); settings: 250 mg/kg oral, average of 5 to 6 mice
From the text: Carbon tetrachloride (CCl4) administration induces centrilobular necrosis of the liver associated with loss of diphosphopyridine nucleotide, hepatic glycogen, coenzyme A and increase in neutral fat. Release of several enzymes from the hepatocytes, and increase of enzyme activities in the plasma are recognized as the result of the damage of the liver. A suitable means for evaluating the degree of damage induced by CCl4 or the degree of protection afforded by drugs is to study the plasma glutamic-pyruvic transminase (p-GPT) activity.
Methods: The test compounds were dissolved or suspended in olive oil and administered orally at the dose of 250 mg/kg to the mice (Four-week-old male mice-dd strain). After 6 hours, CCl4 was administered orally (0.05 ml/kg as olive oil solution). Animals were killed 24 hours after CCl4 administration, and the liver was grossly observed. The plasma was obtained by centrifugation. Activities of p-GPT were determined by the method of Reitman and Frankel and expressed in Karmen units.
Score for liver damage index was as follows:
4 Clearly observable damage
Each figure indicates average of 5 to 6 mice. Values of p-GPT over 1,000 Karmen unit regarded as 1,000 for calculation of average for convenience.

[6] = tested on: fatty liver induced by carbon tetrachloride; assay: Therapeutic Effect on Fatty Liver (carbon tetrachloride); type: in vivo, rats (SD strain); settings: 10 days; for Degree of fatty liver (histopathological examination): one symbol per animal
Experimental: Methods: […] The treated animals were left for 3 days after the last administration to maximize the manifestation of fatty liver. […] It was orally given everyday for 10 days at the dose of 50 or 250 mg/kg. On the 11th day, the animals were sacrificed. The therapeutic effect was evaluated by determining the content of liquid in the liver (triglyceride and total lipid) and examining the histopathological changes. Triglyceride and total lipid were determined colorimetrically by chromotropic acid method and Bragdon's oxidation method, respectively. Indices for the histopathological change is as follows: […]

glucose metabolism [7] = assay: Effect on glucose metabolism; type: in vivo, mice; settings: 250 mg/kg oral, 6 h before glucose 4.0 g/kg
Experimental: The test compounds dissolved in olive oil and administered orally at the dose of 250 mg/kg to the mice. After 6 hours, 4.0 g/kg of glucose was orally administered. The same amount of glucose was given to the control animals. 0.02 ml of blood was taken from caudal vein of the mice at 30, 60, 90 and 120 min. after glucose administration. Blood sugar was measured by the procedure of Somogyi-Nelson. Number of animals used was 5 to 6 mice for each treatment.

## CCOC(=O)C(C(=O)OCC)=C1SCC(O)S1 (stereo not drawn) [Compound 1, Diethyl 4-hydroxy-1,3-dithiolan-2-ylidene malonate]
[1]; compound 1 hr after ethionine
  Triglyceride: 11.8 ± 0.72 mg/g-liver
[1]; compound 1 hr before ethionine (200 mg/kg i.p.)
  Triglyceride: 12.3 ± 0.82 mg/g-liver
[1]; simultaneous with ethionine (0 hr)
  Triglyceride: 7.1 ± 0.24 mg/g-liver
Glucose metabolism [2]
  Blood Sugar: 138 ± 18.2 mg/dL
[3]; 0 min
  Concentration of Ethyl alcohol in Plasma: 12±3 ppm
[3]; 5 min
  Concentration of Ethyl alcohol in Plasma: 732±102 ppm
[3]; 15 min
  Concentration of Ethyl alcohol in Plasma: 710±88 ppm
[3]; 30 min
  Concentration of Ethyl alcohol in Plasma: 455±112 ppm
[3]; 60 min
  Concentration of Ethyl alcohol in Plasma: 12±7 ppm
[4]; 1 hour after treatment
  Excretion of biliary salt: 103 ± 6.8
[4]; 2 hours after treatment
  Excretion of biliary salt: 102 ± 6.6
[4]; 3 hours after treatment
  Excretion of biliary salt: 100 ± 5.8
[4]; 4 hours after treatment
  Excretion of biliary salt: 95 ± 7.7
[4]; 5 hours after administration
  Amount of total excreted biliary salts relative to control: 1.40 times
[4]; 5 hours after treatment
  Excretion of biliary salt: 86 ± 5.2
Bile flow; 1 hour after treatment
  Bile flow: 110 ± 1.8
Bile flow; 2 hours after treatment
  Bile flow: 115 ± 6.8
Bile flow; 3 hours after treatment
  Bile flow: 105 ± 6.2
Bile flow; 4 hours after treatment
  Bile flow: 98 ± 8.2
Bile flow; 5 hours after administration
  Quantity of total excreted bile relative to control: 1.10 times
Bile flow; 5 hours after treatment
  Bile flow: 80 ± 6.8
[5]; 6 h before CCl4 (0.05 ml/kg oral), score 0 Normal, 2 slight, 4 clear, 6 heavy damage
  Liver damage index: 0.5
[5]; 6 h before CCl4, 24 h after CCl4, values over 1,000 regarded as 1,000
  p-GPT (plasma glutamic-pyruvic transaminase activity): 66 Karmen units
[6]; 50 mg/kg oral
  Total lipid: 80.2 ± 9.8 mg/g-liver
  Triglyceride: 36.2 ± 7.8 mg/g-liver
  Degree of fatty liver (histopathological examination): ± + ± ± ± ± +
[6]; 250 mg/kg oral
  Total lipid: 70.3 ± 10.2 mg/g-liver
  Triglyceride: 24.9 ± 8.2 mg/g-liver
  Degree of fatty liver (histopathological examination): ± ± - - ± ± ±
Glucose metabolism [7]; 30 min
  Blood Sugar: 260 ± 20.4 mg/dL
Glucose metabolism [7]; 60 min
  Blood Sugar: 228 ± 15.2 mg/dL
Glucose metabolism [7]; 90 min
  Blood Sugar: 188 ± 11.3 mg/dL
Glucose metabolism [7]; 120 min
  Blood Sugar: 132 ± 10.4 mg/dL
